US20240376100A1 (Redona Therapeutics, Inc., priority 2021, published 2024)
Counter-ions that a name gives are not always drawn.

The compounds below were run against PAPD5 enzyme (Homo sapiens, UniProt Q8NDF8) (assay: PAPD5 assay (AMP incorporation onto 3'-terminus of RNA substrate, fluorescence quench)). Details: PAPD5 protein 0.3 nM, ATP 50 μM, 30 minutes preincubation, room temperature; read-out: Potency PAPD5 IC50.
Type: biochemical
Protocol: The purpose of the PAPD5 assay is to determine compound potency against PAPD5 enzyme through the measurement of IC50. Compound inhibition is measured as a function of AMP incorporation onto the 3′-terminus of an RNA substrate in the presence of active PAPD5, ATP, and inhibitor. The PAPD5 assay was done in a black, non-binding, 384 well plate (Corning #3575). All steps were performed at room temperature. For a typical assay, a 40 ul aliquot of assay buffer (50 mM HEPES pH 7.3, 20 mM KCl, 10 mM MgCl2, 10 mMM DTT, 0.01% Triton X-100, 40 U/ml RNAsin (Promega)) containing PAPD5 protein (final 10 concentration: 0.3 nM) and ATP (final concentration 50 μM) was added to each well. Next, 1 ul of compound in 100% DMSO is transferred from a compound dilution plate in which the compound is serially diluted. The plate was placed on a plate shaker for 30 seconds to produce mixing, then incubated for 30 minutes. Next, 10 ul of a 5× mix of RNA substrate (5′-fluorescein-AUAGAG-3′ (IDT)) and a DNA oligonucleotide that is complementary to the AMP modified RNA product (5′-TCTCTATT-3′-TAMRA, wherein the first two nucleotides are locked nucleic acids (IDT)) was added (final concentrations: 5 nM and 20 nM, respectively). The plate was placed on a plate shaker for 30 seconds to produce mixing then immediately placed in a Biotek Cytation 5 plate reader, and the time-dependent decrease in fluorescein fluorescence resulting from annealing of the TAMRA labeled quenching probe was recorded, using the kinetics mode of the reader (typical run time is 90 minutes). Reaction rates were obtained using linear fits to the early portion of progress curves. IC50 values were calculated using a four-parameter fit with 100% enzyme activity determined from the DMSO control and 0% activity from control samples lacking UTP.
“+” represents an IC50 value that is greater than 50 PM; “++” represents an IC50 value that is greater than 10 μM and equal to or less than 50 μM; “+++” represents an IC50 value that is greater than 1 μM and equal to or less than 10 μM; and “++++” represents an IC50 value that is equal to or less than 1 μM.

Chain of PAPD5 enzyme (Q8NDF8 whole entry): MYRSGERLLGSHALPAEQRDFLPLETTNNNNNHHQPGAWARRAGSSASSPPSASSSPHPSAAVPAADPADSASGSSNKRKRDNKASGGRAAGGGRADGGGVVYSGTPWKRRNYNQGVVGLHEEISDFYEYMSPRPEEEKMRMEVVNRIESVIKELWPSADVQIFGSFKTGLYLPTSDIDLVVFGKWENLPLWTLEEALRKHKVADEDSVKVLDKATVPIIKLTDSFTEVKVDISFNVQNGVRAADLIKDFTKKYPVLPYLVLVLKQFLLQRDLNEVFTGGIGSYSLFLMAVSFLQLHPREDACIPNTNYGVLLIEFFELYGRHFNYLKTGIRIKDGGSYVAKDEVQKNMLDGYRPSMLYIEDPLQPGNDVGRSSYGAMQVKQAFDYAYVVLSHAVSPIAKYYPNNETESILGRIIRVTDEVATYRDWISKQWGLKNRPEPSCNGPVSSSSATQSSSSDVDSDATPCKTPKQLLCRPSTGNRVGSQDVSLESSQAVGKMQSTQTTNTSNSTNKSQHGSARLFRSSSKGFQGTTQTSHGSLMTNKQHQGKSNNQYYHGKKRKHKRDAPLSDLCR

Compound | IC50 [nM]
Cc1cc(O)ncc1-n1cc(C(=O)O)c(=O)c2cc(C#N)c(N3Cc4cccnc4C3)cc21 [Example 60, 6-cyano-7-(5,7-dihydro-6H-pyrrolo[3,4-b]pyridin-6-yl)-1-(6-hydroxy-4-methylpyridin-3-yl)-4-oxo-1,4-dihydroquinoline-3-carboxylic acid] | ≤ 1000
CC1(Cn2cc(C(=O)O)c(=O)c3cc(Cl)c(N4Cc5cccnc5C4)nc32)CCC1 [Example 61, 6-chloro-7-(5,7-dihydro-6H-pyrrolo[3,4-b]pyridin-6-yl)-1-((1-methylcyclobutyl)methyl)-4-oxo-1,4-dihydro-1,8-naphthyridine-3-carboxylic acid] | ≤ 1000
N#Cc1cc2c(=O)c(C(=O)O)cn(CC3CCCC3)c2nc1N1Cc2cccnc2C1 [Example 62, 6-cyano-1-(cyclopentylmethyl)-7-(5,7-dihydro-6H-pyrrolo[3,4-b]pyridin-6-yl)-4-oxo-1,4-dihydro-1,8-naphthyridine-3-carboxylic acid] | ≤ 1000
N#Cc1cc2c(=O)c(C(=O)O)cn(CC3CCCCC3)c2nc1N1Cc2cccnc2C1 [Example 63, 6-cyano-1-(cyclohexylmethyl)-7-(5,7-dihydro-6H-pyrrolo[3,4-b]pyridin-6-yl)-4-oxo-1,4-dihydro-1,8-naphthyridine-3-carboxylic acid] | ≤ 1000
O=C(O)c1cn(Cc2ccccn2)c2nc(N3Cc4cccnc4C3)c(Cl)cc2c1=O [Example 65, 6-chloro-7-(5,7-dihydro-6H-pyrrolo[3,4-b]pyridin-6-yl)-4-oxo-1-(pyridin-2-ylmethyl)-1,4-dihydro-1,8-naphthyridine-3-carboxylic acid] | ≤ 1000
O=C(O)c1cn(Cc2ccncc2)c2nc(N3Cc4cccnc4C3)c(Cl)cc2c1=O [Example 66, 6-chloro-7-(5,7-dihydro-6H-pyrrolo[3,4-b]pyridin-6-yl)-4-oxo-1-(pyridin-4-ylmethyl)-1,4-dihydro-1,8-naphthyridine-3-carboxylic acid] | ≤ 1000
O=C(O)c1cn(Cc2ccccc2F)c2nc(N3Cc4cccnc4C3)c(Cl)cc2c1=O [Example 68, 6-chloro-7-(5,7-dihydro-6H-pyrrolo[3,4-b]pyridin-6-yl)-1-(2-fluorobenzyl)-4-oxo-1,4-dihydro-1,8-naphthyridine-3-carboxylic acid] | ≤ 1000
O=C(O)c1cn(Cc2ccccc2Cl)c2nc(N3Cc4cccnc4C3)c(Cl)cc2c1=O [Example 69, 6-chloro-1-(2-chlorobenzyl)-7-(5,7-dihydro-6H-pyrrolo[3,4-b]pyridin-6-yl)-4-oxo-1,4-dihydro-1,8-naphthyridine-3-carboxylic acid] | ≤ 1000
CC(C)(C)OC(=O)N1CCC(Cn2cc(C(=O)O)c(=O)c3cc(Cl)c(N4Cc5cccnc5C4)nc32)CC1 [Example 72, 1-((1-(tert-butoxycarbonyl)piperidin-4-yl)methyl)-6-chloro-7-(5,7-dihydro-6H-pyrrolo[3,4-b]pyridin-6-yl)-4-oxo-1,4-dihydro-1,8-naphthyridine-3-carboxylic acid] | ≤ 1000
CC(C)(C)OC(=O)N1CCC(n2cc(C(=O)O)c(=O)c3cc(Cl)c(N4Cc5cccnc5C4)nc32)CC1 [Example 73, 1-(1-(tert-butoxycarbonyl)piperidin-4-yl)-6-chloro-7-(5,7-dihydro-6H-pyrrolo[3,4-b]pyridin-6-yl)-4-oxo-1,4-dihydro-1,8-naphthyridine-3-carboxylic acid] | ≤ 1000
COc1cnc(-n2cc(C(=O)O)c(=O)c3cc(F)c(N4Cc5cccnc5C4)cc32)cn1 [Example 75, 7-(5,7-dihydro-6H-pyrrolo[3,4-b]pyridin-6-yl)-6-fluoro-1-(5-methoxypyrazin-2-yl)-4-oxo-1,4-dihydroquinoline-3-carboxylic acid] | ≤ 1000
COc1cnc(-n2cc(C(=O)O)c(=O)c3cc(Cl)c(N4Cc5cccnc5C4)cc32)cn1 [Example 76, 6-chloro-7-(5,7-dihydro-6H-pyrrolo[3,4-b]pyridin-6-yl)-1-(5-methoxypyrazin-2-yl)-4-oxo-1,4-dihydroquinoline-3-carboxylic acid] | ≤ 1000
Cc1cc(NC(=O)C(C)C)ncc1-n1cc(C(=O)O)c(=O)c2cc(Cl)c(N3Cc4cccnc4C3)cc21 [Example 83, 6-chloro-7-(5,7-dihydro-6H-pyrrolo[3,4-b]pyridin-6-yl)-1-(6-isobutyramido-4-methylpyridin-3-yl)-4-oxo-1,4-dihydroquinoline-3-carboxylic acid] | ≤ 1000
O=C(O)c1cn(C2CCN(C(=O)c3ccccc3)CC2)c2cc(N3Cc4cccnc4C3)c(Cl)cc2c1=O [Example 84, 1-(1-benzoylpiperidin-4-yl)-6-chloro-7-(5,7-dihydro-6H-pyrrolo[3,4-b]pyridin-6-yl)-4-oxo-1,4-dihydroquinoline-3-carboxylic acid] | ≤ 1000

Other lines, results leading:

IC50 [nM] | Compound
≤ 1000 | Cc1ccnc2c1CN(c1nc3c(cc1Cl)c(=O)c(C(=O)O)cn3-c1cnccn1)C2 [Example 64, 6-chloro-7-(4-methyl-5,7-dihydro-6H-pyrrolo[3,4-b]pyridin-6-yl)-4-oxo-1-(pyrazin-2-yl)-1,4-dihydro-1,8-naphthyridine-3-carboxylic acid]
≤ 1000 | O=C(O)c1cn(Cc2cccnc2)c2nc(N3Cc4cccnc4C3)c(Cl)cc2c1=O [Example 67, 6-chloro-7-(5,7-dihydro-6H-pyrrolo[3,4-b]pyridin-6-yl)-4-oxo-1-(pyridin-3-ylmethyl)-1,4-dihydro-1,8-naphthyridine-3-carboxylic acid]
≤ 1000 | Cc1ccccc1Cn1cc(C(=O)O)c(=O)c2cc(Cl)c(N3Cc4cccnc4C3)nc21 [Example 70, 6-chloro-7-(5,7-dihydro-6H-pyrrolo[3,4-b]pyridin-6-yl)-1-(2-methylbenzyl)-4-oxo-1,4-dihydro-1,8-naphthyridine-3-carboxylic acid]
≤ 1000 | COc1ncccc1Cn1cc(C(=O)O)c(=O)c2cc(Cl)c(N3Cc4cccnc4C3)nc21 [Example 71, 6-chloro-7-(5,7-dihydro-6H-pyrrolo[3,4-b]pyridin-6-yl)-1-((2-methoxypyridin-3-yl)methyl)-4-oxo-1,4-dihydro-1,8-naphthyridine-3-carboxylic acid]
≤ 1000 | COc1cnc(-n2cc(C(=O)O)c(=O)c3cc(Cl)c(N4Cc5cccnc5C4)nc32)cn1 [Example 74, 6-chloro-7-(5,7-dihydro-6H-pyrrolo[3,4-b]pyridin-6-yl)-1-(5-methoxypyrazin-2-yl)-4-oxo-1,4-dihydro-1,8-naphthyridine-3-carboxylic acid]
≤ 1000 | Cc1cc(N)ncc1-n1cc(C(=O)O)c(=O)c2cc(F)c(N3Cc4cccnc4C3)nc21 [Example 77, 1-(6-amino-4-methylpyridin-3-yl)-7-(5,7-dihydro-6H-pyrrolo[3,4-b]pyridin-6-yl)-6-fluoro-4-oxo-1,4-dihydro-1,8-naphthyridine-3-carboxylic acid TFA salt]
≤ 1000 | Cc1cc(N)ncc1-n1cc(C(=O)O)c(=O)c2cc(Cl)c(N3Cc4cccnc4C3)nc21 [Example 78, 1-(6-amino-4-methylpyridin-3-yl)-6-chloro-7-(5,7-dihydro-6H-pyrrolo[3,4-b]pyridin-6-yl)-4-oxo-1,4-dihydro-1,8-naphthyridine-3-carboxylic acid TFA salt]
≤ 1000 | Cc1cc(N)ncc1-n1cc(C(=O)O)c(=O)c2cc(F)c(N3Cc4cccnc4C3)cc21 [Example 79, 1-(6-amino-4-methylpyridin-3-yl)-7-(5,7-dihydro-6H-pyrrolo[3,4-b]pyridin-6-yl)-6-fluoro-4-oxo-1,4-dihydroquinoline-3-carboxylic acid TFA salt]
≤ 1000 | Cc1cc(N)ncc1-n1cc(C(=O)O)c(=O)c2cc(C#N)c(N3Cc4cccnc4C3)cc21 [Example 80, 1-(6-amino-4-methylpyridin-3-yl)-6-cyano-7-(5,7-dihydro-6H-pyrrolo[3,4-b]pyridin-6-yl)-4-oxo-1,4-dihydroquinoline-3-carboxylic acid]
≤ 1000 | CC(=O)Nc1cc(C)c(-n2cc(C(=O)O)c(=O)c3cc(Cl)c(N4Cc5cccnc5C4)cc32)cn1 [Example 81, 1-(6-acetamido-4-methylpyridin-3-yl)-6-chloro-7-(5,7-dihydro-6H-pyrrolo[3,4-b]pyridin-6-yl)-4-oxo-1,4-dihydroquinoline-3-carboxylic acid]
≤ 1000 | CCC(=O)Nc1cc(C)c(-n2cc(C(=O)O)c(=O)c3cc(Cl)c(N4Cc5cccnc5C4)cc32)cn1 [Example 82, 6-chloro-7-(5,7-dihydro-6H-pyrrolo[3,4-b]pyridin-6-yl)-1-(4-methyl-6-propionamidopyridin-3-yl)-4-oxo-1,4-dihydroquinoline-3-carboxylic acid]
